Data reported in ChEMBL document CHEMBL1153721, “Isohalitulin and haliclorensins B and C, three marine alkaloids from Haliclona tulearensis” (J Nat Prod, 2010).

Assay: Toxicity against Artemia salina
Assay type: organism-based
Settings: in vivo, read-out: LD50 (the source's name)

Row | Structure (SMILES) | LC50 [µM]
1 | C[C@H]1CCCCCCCN2C=[N+](CCC2)C1 [HALICLORENSIN B] | 2200
2 | C[C@H]1CCCCCCCN(CCCn2cc(-c3c(O)c(O)cc4ncccc34)c(-c3c(O)c(O)cc4ncccc34)c2)C1 [ISOHALITULIN] | 900
3 | C[C@H]1CCCCCCCCCCCCCNC1 [HALICLORENSIN C] | 2100
